In ChEMBL document CHEMBL5705895, “Species comparison and pharmacological characterization of human, monkey, rat, and mouse TRPA1 channels” (J Pharmacol Exp Ther, 2012):
Active and inactive are the calls of the source. No cut-off for these calls is given here.

Experiments:
Type in all cases: cell-based
[1] = biological target: T1, Transient receptor potential cation channel subfamily A member 1 (Rattus norvegicus, UniProt Q6RI86); assay: Antagonist activity at full length rat TRPA1 transfected in HEK293F cells assessed as blockade of MO-induced TRPA1 channel activation by measuring Ca2+ influx in presence of 30 uM MO by FLIPR calcium assay
[2] = biological target: T2, Transient receptor potential cation channel subfamily A member 1 (Macaca mulatta, UniProt A0A1D5QMT1); assay: Antagonist activity at full length rhesus monkey TRPA1 transfected in HEK293F cells assessed as blockade of MO-induced TRPA1 channel activation by measuring Ca2+ influx in presence of 120 uM MO by FLIPR calcium assay
[3] = biological target: T3, Transient receptor potential cation channel subfamily A member 1 (Mus musculus, UniProt Q8BLA8); assay: Antagonist activity at full length mouse TRPA1 transfected in HEK293F cells assessed as blockade of MO-induced TRPA1 channel activation by measuring Ca2+ influx in presence of 30 uM MO by FLIPR calcium assay
[4] = biological target: T4, Transient receptor potential cation channel subfamily A member 1 (Homo sapiens, UniProt O75762); assay: Antagonist activity at full length human TRPA1 transfected in HEK293F cells assessed as blockade of MO-induced TRPA1 channel activation by measuring Ca2+ influx in presence of 30 uM MO by FLIPR calcium assay
[5] = biological target: T5, Transient receptor potential cation channel subfamily A member 1 (Macaca mulatta) (UniProt A0A1D5QMT1); assay: Agonist activity at rhesus monkey TRPA1 transfected in HEK293F cells assessed as increase in Ca2+ influx by FLIPR calcium assay relative to MO; details: filed as agonist
[6] = biological target: Transient receptor potential cation channel subfamily A member 1 (Mus musculus) (UniProt Q8BLA8); assay: Agonist activity at full length mouse TRPA1 transfected in HEK293F cells assessed as increase in Ca2+ influx by FLIPR calcium assay relative to control; details: filed as agonist
[7] = biological target: T3, Transient receptor potential cation channel subfamily A member 1; assay: Agonist activity at full length mouse TRPA1 transfected in HEK293F cells assessed as increase in Ca2+ influx by FLIPR calcium assay
[8] = biological target: T4, Transient receptor potential cation channel subfamily A member 1; assay: Agonist activity at full length human TRPA1 transfected in HEK293F cells assessed as increase in Ca2+ influx by FLIPR calcium assay relative to MO; details: filed as agonist
[9] = biological target: T1, Transient receptor potential cation channel subfamily A member 1; assay: Agonist activity at full length rat TRPA1 transfected in HEK293F cells assessed as increase in Ca2+ influx by FLIPR calcium assay
[10] = biological target: T2, Transient receptor potential cation channel subfamily A member 1; assay: Agonist activity at rhesus monkey TRPA1 transfected in HEK293F cells assessed as increase in Ca2+ influx by FLIPR calcium assay
[11] = biological target: T4, Transient receptor potential cation channel subfamily A member 1; assay: Agonist activity at full length human TRPA1 transfected in HEK293F cells assessed as increase in Ca2+ influx by FLIPR calcium assay
[12] = biological target: Transient receptor potential cation channel subfamily A member 1 (Rattus norvegicus) (UniProt Q6RI86); assay: Agonist activity at full length rat TRPA1 transfected in HEK293F cells assessed as increase in Ca2+ influx by FLIPR calcium assay relative to MO; details: filed as agonist
[13] = biological target: T2, Transient receptor potential cation channel subfamily A member 1; assay: Activation of full length rhesus monkey TRPA1 transfected in HEK293F cells assessed as 1 mM of MO-induced current Blockade at -60 mV by whole-cell recording analysis
[14] = biological target: T2, Transient receptor potential cation channel subfamily A member 1; assay: Activation of full length rhesus monkey TRPA1 transfected in HEK293F cells assessed as 120 uM of MO-induced current Blockade at -60 mV by whole-cell recording analysis
[15] = biological target: T4, Transient receptor potential cation channel subfamily A member 1; assay: Antagonist activity at full length human TRPA1 transfected in HEK293F cells assessed as increase in Ca2+ influx by FLIPR calcium assay; details: filed as antagonist
[16] = biological target: Transient receptor potential cation channel subfamily A member 1 (Mus musculus) (UniProt Q8BLA8); assay: Agonist activity at full length mouse TRPA1 transfected in HEK293F cells assessed as blockade of MO-induced TRPA1 channel activation by measuring Ca2+ influx in presence of 30 uM MO by FLIPR calcium assay; details: filed as agonist
[17] = biological target: Transient receptor potential cation channel subfamily A member 1 (Rattus norvegicus) (UniProt Q6RI86); assay: Agonist activity at full length rat TRPA1 transfected in HEK293F cells assessed as blockade of MO-induced TRPA1 channel activation by measuring Ca2+ influx in presence of 30 uM MO by FLIPR calcium assay; details: filed as agonist
[18] = biological target: T5, Transient receptor potential cation channel subfamily A member 1 (Macaca mulatta); assay: Antagonist activity at rhesus monkey TRPA1 transfected in HEK293F cells assessed as increase in Ca2+ influx by FLIPR calcium assay; details: filed as antagonist
[19] = biological target: T4, Transient receptor potential cation channel subfamily A member 1; assay: Agonist activity at full length human TRPA1 transfected in HEK293F cells assessed as increase in Ca2+ influx in presence of 30 to 1000 uM MO by FLIPR calcium assay

T1 sequence (Q6RI86 whole entry): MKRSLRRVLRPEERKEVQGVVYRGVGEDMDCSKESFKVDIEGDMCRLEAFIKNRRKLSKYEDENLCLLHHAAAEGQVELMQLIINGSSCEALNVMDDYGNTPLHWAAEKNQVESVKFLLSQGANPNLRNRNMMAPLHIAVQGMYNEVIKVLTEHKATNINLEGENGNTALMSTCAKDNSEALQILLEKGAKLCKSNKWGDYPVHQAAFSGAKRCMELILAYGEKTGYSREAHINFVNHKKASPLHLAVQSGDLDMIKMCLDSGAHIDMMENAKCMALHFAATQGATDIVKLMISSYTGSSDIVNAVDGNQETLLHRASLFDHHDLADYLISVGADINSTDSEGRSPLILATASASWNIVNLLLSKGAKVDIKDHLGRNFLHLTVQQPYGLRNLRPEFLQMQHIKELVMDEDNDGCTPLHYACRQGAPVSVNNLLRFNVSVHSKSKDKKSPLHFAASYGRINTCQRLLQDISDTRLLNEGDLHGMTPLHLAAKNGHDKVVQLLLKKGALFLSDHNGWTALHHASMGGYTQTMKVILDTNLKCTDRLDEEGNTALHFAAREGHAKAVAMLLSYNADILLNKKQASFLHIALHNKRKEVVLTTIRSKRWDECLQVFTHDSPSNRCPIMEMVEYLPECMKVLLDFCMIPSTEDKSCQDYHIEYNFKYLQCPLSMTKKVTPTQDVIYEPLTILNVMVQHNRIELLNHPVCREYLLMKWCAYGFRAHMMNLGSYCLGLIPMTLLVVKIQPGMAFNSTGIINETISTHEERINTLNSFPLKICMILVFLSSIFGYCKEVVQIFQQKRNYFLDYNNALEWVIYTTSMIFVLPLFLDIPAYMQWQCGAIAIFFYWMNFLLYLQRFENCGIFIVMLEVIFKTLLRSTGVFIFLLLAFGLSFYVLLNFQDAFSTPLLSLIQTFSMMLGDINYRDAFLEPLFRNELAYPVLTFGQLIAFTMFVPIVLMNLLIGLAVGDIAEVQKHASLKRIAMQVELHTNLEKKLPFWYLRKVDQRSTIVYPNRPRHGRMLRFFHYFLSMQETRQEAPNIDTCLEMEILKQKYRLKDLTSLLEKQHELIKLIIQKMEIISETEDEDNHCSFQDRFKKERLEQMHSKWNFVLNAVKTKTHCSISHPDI
Sequence of Transient receptor potential cation channel subfamily A member 1 (Rattus norvegicus) (Q6RI86 whole entry): as above
T3 sequence (Q8BLA8 whole entry): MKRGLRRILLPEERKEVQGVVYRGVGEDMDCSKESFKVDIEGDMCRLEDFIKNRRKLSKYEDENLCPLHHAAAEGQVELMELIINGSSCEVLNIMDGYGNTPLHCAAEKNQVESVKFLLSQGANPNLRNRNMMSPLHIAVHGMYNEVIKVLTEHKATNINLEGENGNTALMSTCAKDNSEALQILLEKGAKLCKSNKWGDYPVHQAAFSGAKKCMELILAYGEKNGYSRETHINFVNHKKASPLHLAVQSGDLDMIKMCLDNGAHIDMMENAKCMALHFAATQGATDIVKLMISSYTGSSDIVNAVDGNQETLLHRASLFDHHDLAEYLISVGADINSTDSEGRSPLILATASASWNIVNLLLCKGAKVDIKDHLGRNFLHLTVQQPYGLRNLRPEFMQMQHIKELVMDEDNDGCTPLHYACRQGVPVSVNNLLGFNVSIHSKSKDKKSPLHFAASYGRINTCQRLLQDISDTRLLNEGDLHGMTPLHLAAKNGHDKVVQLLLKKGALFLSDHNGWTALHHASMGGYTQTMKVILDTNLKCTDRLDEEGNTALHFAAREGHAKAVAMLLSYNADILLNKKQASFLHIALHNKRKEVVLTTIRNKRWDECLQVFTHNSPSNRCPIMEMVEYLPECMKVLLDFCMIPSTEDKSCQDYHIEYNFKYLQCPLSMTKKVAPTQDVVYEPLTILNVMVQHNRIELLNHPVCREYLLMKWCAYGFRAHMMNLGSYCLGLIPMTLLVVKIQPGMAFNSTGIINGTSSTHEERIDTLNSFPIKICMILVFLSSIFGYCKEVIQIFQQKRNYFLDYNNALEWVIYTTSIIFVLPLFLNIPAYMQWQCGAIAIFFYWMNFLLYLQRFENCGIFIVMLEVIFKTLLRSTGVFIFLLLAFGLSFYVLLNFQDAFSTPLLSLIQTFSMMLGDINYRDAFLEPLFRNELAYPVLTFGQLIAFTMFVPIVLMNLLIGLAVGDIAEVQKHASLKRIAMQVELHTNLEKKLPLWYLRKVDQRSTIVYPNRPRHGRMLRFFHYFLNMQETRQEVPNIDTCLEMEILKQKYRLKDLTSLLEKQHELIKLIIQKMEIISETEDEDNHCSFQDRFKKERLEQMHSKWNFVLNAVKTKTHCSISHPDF
Sequence of Transient receptor potential cation channel subfamily A member 1 (Mus musculus) (Q8BLA8 whole entry): as above
T4 sequence (O75762 whole entry): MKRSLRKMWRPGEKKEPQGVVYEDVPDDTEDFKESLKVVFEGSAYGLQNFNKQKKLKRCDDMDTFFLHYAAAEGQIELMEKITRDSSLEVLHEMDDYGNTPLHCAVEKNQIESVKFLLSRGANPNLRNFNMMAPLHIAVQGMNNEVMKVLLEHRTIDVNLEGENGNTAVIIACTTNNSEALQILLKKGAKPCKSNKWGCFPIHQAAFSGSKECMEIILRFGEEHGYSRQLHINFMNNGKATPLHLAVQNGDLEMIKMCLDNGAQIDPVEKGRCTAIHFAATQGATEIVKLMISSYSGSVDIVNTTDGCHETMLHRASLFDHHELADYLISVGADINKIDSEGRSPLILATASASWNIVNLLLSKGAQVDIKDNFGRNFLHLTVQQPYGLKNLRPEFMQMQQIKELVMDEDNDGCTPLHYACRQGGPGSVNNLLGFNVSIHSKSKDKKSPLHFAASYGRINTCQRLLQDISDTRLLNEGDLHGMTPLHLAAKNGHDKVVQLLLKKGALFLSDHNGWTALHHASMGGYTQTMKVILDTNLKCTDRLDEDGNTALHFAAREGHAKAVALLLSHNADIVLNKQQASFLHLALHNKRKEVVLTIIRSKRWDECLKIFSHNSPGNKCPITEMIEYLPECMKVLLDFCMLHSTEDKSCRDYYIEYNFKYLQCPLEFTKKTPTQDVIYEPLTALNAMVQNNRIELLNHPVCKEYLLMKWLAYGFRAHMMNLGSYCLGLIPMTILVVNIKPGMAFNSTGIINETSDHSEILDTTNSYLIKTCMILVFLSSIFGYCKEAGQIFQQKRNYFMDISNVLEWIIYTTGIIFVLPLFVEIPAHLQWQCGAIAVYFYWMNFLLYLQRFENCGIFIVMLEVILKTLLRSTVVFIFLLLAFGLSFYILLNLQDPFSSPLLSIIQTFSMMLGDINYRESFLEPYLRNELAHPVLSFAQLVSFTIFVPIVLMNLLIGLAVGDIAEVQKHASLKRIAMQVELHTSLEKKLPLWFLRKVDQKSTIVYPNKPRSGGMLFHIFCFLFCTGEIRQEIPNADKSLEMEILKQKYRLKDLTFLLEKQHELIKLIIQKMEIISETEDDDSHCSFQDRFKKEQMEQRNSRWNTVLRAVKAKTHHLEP
T5 sequence (A0A1D5QMT1 as listed by the source): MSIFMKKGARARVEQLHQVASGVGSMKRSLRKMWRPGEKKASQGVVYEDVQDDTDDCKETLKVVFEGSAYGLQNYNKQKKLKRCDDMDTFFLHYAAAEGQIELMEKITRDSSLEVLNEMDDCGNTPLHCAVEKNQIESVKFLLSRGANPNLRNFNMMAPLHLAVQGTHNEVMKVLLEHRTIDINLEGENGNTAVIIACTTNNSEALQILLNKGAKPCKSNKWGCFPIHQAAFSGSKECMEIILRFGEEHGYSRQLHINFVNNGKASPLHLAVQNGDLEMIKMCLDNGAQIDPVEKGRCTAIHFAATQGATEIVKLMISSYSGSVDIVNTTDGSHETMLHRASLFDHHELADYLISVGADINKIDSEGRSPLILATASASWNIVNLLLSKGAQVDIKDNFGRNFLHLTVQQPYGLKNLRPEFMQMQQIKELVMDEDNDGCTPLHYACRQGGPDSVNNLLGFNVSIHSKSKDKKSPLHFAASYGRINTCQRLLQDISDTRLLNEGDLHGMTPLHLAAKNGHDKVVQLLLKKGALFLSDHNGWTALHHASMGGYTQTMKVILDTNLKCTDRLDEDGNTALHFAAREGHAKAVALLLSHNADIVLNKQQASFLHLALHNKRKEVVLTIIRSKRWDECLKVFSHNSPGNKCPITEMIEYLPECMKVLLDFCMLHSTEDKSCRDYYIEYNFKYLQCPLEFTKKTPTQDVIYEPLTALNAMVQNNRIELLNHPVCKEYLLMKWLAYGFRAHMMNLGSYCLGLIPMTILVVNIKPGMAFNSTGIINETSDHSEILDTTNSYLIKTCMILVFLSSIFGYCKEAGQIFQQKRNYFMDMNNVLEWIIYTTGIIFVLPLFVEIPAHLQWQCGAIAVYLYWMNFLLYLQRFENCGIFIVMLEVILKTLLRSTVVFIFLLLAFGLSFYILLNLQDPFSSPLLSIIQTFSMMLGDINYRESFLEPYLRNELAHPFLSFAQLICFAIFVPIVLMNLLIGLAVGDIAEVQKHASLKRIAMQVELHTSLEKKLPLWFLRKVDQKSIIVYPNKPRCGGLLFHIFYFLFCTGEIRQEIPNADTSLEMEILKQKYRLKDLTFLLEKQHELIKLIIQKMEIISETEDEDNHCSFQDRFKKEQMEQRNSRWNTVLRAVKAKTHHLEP
T2 sequence (A0A1D5QMT1 whole entry): as the sequence (A0A1D5QMT1 as listed by the source) above

`CC(C)c1ccc(NC(=O)Cn2cnc3c2c(=O)n(C)c(=O)n3C)cc1` showed an IC50 [1] of 7.6 µM, an IC50 [2] of 7.3 µM and an IC50 [3] of 6.8 µM. The IC50 [4] was 7.4 µM.

`O=C/C=C/c1ccccc1` gave an Emax [5] of 84%, an Emax [6] of 71% and an EC50 [7] of 3.4 µM. It also gave an Emax [8] of 81%, an EC50 [9] of 5.4 µM and an EC50 [10] of 23.9 µM. It also gave an EC50 [11] of 12.5 µM and an Emax [12] of 89%.

`CCCCC/C=C/C=C1/C(=O)C=C[C@@H]1C/C=C\CCCC(=O)O` gave an Emax [6] of 65%, an EC50 [7] of 56.4 µM and an Emax [8] of 75%. It also gave an EC50 [9] of 19.9 µM, an EC50 [10] of over 100 µM and an EC50 [11] of 40.4 µM. The Emax [12] was 70%.

In the case of `CCCCCC(O)/C=C/C=O` (configuration not stated) [4-HYDROXYNON-2-ENAL], the Emax [6] is reported as 72%, the EC50 [7] is reported as 6.6 µM and the Emax [8] is reported as 80%. The EC50 [9] was 6 µM, the EC50 [10] was over 100 µM and the EC50 [11] was 9.9 µM. The Emax [12] was 76%.

`CCC(=N\O)/C(C)=C/c1ccc(F)cc1` [A-079] was tested, and the IC50 [1] was 0.33 µM, the IC50 [13] was 1.63 µM and the IC50 [2] was 0.6 µM. The IC50 [14] was 0.6 µM and the IC50 [3] was 0.75 µM.

`CC(=C\c1ccc(Cl)cc1)/C(C)=N/O` [AP18 5] showed an IC50 [1] of 39.9 µM, an IC50 [2] of 56.4 µM and an IC50 [3] of 33 µM. For the same compound, the IC50 [4] was 9.1 µM.

In the case of `Cn1c(=O)c2c(ncn2C)n(C)c1=O` [CAFFEINE], the Activity [15] is reported as “Active”, the Activity [16] is reported as “Active” and the Emax [6] is reported as 52%. For the same compound, the EC50 [7] was 61.8 µM, the EC50 [9] was 95.9 µM and the Activity [17] was “Active”. For the same compound, the IC50 [2] was over 1000 µM, the Activity [18] was “Active” and the Emax [12] was 44%. The IC50 [4] was 988 µM.

In the case of `CC1CCC(C(C)C)C(O)C1` (configuration not stated) [MENTHOL], the IC50 [1] is reported as 511 µM, the Emax [6] is reported as 40% and the EC50 [7] is reported as 5.2 µM. For the same compound, the Emax [8] was 80%, the Activity [19] was “inactive” and the EC50 [9] was 7.1 µM. The EC50 [10] was over 300 µM, the IC50 [2] was over 1000 µM and the IC50 [3] was 951 µM. The EC50 [11] was 278 µM, the Emax [12] was 41% and the IC50 [4] was over 1000 µM.

Work on `CC(C)=CCC/C(C)=C/CC/C(C)=C/CSc1ccccc1C(=O)O` [SALIRASIB] yielded an Emax [5] of 112%, an Emax [6] of 105% and an EC50 [7] of 85.5 µM. For the same compound, the Emax [8] was 106%, the EC50 [9] was 102 µM and the EC50 [10] was 167 µM. It also gave an EC50 [11] of 4.9 µM and an Emax [12] of 89%.

For `NC(=O)c1cccc(-c2cccc(OC(=O)NC3CCCCC3)c2)c1` [URB-597], the Emax [6] was 77%, the EC50 [7] was 74.4 µM and the Emax [8] was 85%. The EC50 [9] was 129 µM, the EC50 [10] was over 100 µM and the EC50 [11] was 7.5 µM. It also gave an Emax [12] of 72%.
